Test [1] deals with T1, PRMT5-MEP50 enzyme complex (Homo sapiens, UniProt O14744).
T1 construct: Full-length (FL)-PRMT5-MEP50 enzyme complex; made in house; host or cells: baculovirus-transfected Sf21 cells
The test is described as follows: PRMT5-MEP50 Enzyme Methylation Assay. Particulars: one EC50 shown: 4 parameters single site sigmoidal model; two shown: first EC50 of 7 parameters biphasic model; 1.0 nM PRMT5-MEP50, 75 nM biotinylated H4R3(Me1) peptide, 15 μM SAM; read-out: Enzyme Methylation Assay (EC50 or EC50 1). The format is biochemical. On the procedure:
PRMT5-MEP50 Enzyme Methylation Assay
PRMT5-MEP50 biochemical assay is a direct measurement of the methylation activity of the enzyme complex on a short peptide substrate derived from the N-terminus of […]. Methylation experiment is performed with recombinant PRMT5-MEP50 protein complex. The assessment of inhibitory effect of small molecules is measured by the effectiveness of the compounds to inhibit this reaction (EC50).
In this assay, the potency (EC50) of each compound was determined from a twenty-point (1:2 serial dilution; top compound concentration of 100000 nM) titration curve using the following outlined procedure. To each well of a white ProxiPlus 384 well-plate, 100 nL of compound (1% DMSO in final assay volume of 10 μL) was dispensed, followed by the addition of 8 μL of 1× assay buffer (50 mM Bicine pH 8.0, 1 mM DTT, 0.004% Tween20, 0.01% BSA) containing 1.25 nM of Full-length (FL)-PRMT5-MEP50 enzyme complex (recombinant proteins from baculovirus-transfected Sf21 cells: FL-PRMT5; MW=[…] and FL-MEP50; MW=38614) and 1 μL of 150 μM S-(5′-Adenosyl)-L-Methionine Chloride (SAM). Plates were sealed and placed in a 37° C. humidified chamber for a 60 minutes pre-incubation with compound. Subsequently, each reaction was initiated by the addition of 1 μL 1× assay buffer containing 750 nM biotinylated H4R3(Me1) peptide. The final reaction in each well of 10 μL consists of 1.0 nM PRMT5-MEP50, 75 nM biotinylated-peptide, and 15 μM SAM. Methylation reactions proceeded for 150 minutes in a sealed plate at 37° C. Reactions were immediately quenched by the addition of 1 μL of 5% formic acid. Plates were then frozen and shipped to SAMDI™ Tech Inc. to determine the percent conversion from H4R3(Me1) to H4R3(Me2). Dose-response curves were generated by plotting percent effect (% product conversion; Y-axis) vs. Log 10 compound concentrations (X-axis). EC50 values were determined by non-linear regression according to models for either sigmoidal (4 parameters) or biphasic (7 parameters) dose-response curves.

Test [2] relates to symmetric dimethylation of arginine (SDMA) of PRMT5 substrates in MCF-7 cells. The test is described as follows: PRMT5 Cell Target Engagement (TE) Assay. The format is cell-based. The following applies: MCF-7 cells treated for 3 days, nuclear SDMA by high content imaging, top concentration 10000 nM. In short, it runs like this:
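MCF-7 cells treated 3 days at 37 °C with 10-point 1:3 titration from 10000 nM top. Fixed cells stained with anti-SDMA antibody plus Alexa488 secondary and Hoechst; nuclear fluorescence quantified by high-content imaging versus DMSO wells. EC50 from 4-parameter fit of percent fluorescence vs log concentration.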

The values that follow come from patent US12173026B2, “PRMT5 inhibitors” (Merck Sharp & Dohme LLC, priority 2018, dated 2024).

SMILES strings stand for the structures.

T1 sequence (O14744 whole entry): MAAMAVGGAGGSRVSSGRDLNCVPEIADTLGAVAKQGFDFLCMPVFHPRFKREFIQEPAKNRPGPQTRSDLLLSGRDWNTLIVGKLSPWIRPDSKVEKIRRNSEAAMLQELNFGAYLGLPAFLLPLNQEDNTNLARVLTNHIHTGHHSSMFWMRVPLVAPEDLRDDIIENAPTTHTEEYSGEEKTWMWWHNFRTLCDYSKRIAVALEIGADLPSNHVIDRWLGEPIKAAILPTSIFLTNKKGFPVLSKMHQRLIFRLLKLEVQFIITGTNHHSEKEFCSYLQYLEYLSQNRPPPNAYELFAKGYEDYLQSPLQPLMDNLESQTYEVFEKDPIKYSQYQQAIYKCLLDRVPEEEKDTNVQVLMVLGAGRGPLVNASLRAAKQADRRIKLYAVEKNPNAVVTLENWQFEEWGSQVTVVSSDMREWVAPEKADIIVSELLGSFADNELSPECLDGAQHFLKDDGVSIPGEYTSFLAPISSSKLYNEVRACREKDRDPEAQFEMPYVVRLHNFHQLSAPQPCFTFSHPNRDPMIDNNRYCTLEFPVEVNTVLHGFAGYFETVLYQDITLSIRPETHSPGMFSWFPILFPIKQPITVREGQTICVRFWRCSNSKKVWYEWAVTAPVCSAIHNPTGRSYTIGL
T1 sequence (Q9BQA1 whole entry partner): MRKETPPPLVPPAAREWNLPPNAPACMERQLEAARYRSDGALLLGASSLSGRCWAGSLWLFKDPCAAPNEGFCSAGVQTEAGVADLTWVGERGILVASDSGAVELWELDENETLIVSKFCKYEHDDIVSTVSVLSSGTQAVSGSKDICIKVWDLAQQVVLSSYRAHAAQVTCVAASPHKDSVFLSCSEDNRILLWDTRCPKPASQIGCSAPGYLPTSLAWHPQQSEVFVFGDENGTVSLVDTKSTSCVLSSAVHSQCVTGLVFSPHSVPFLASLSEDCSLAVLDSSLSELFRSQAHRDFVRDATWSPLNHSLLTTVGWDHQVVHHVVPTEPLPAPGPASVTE

On to `Nc1nc2cc(C[C@@H]3CC[C@@]4(O)[C@@H]3O[C@@H](n3cc(C5CC5)c5c(N)ncnc53)[C@@H]4O)ccc2cc1F` [Example 50], for which the EC50 (commonly the concentration needed to bring the measured effect to its halfway point) worked out at 0.3 nM in test [1] and 0.7 nM in test [2].
The corresponding values for `Nc1nc2cc(O[C@H]3CC[C@@]4(O)[C@@H]3O[C@@H](n3ccc5c(C(F)F)ncnc53)[C@@H]4O)ccc2cc1Br` [Example 79, (2R,3R,3aS,6S,6aR)-6-((2-amino-3-bromoquinolin-7-yl)oxy)-2-(4-(difluoromethyl)-7H-pyrrolo[2,3-d]pyrimidin-7-yl)hexabodro-3aH-cyclopenta[b]furan-3,3a-diol] are 2.9 nM and 52.5 nM.
On to `Nc1nc2cc(CCC3(CF)C[C@@H](n4ccc5c(N)ncnc54)[C@H](O)[C@@H]3O)ccc2cc1Br` (some centres unmarked) [Example 102], for which the values for the EC50 in test [1] and in test [2] were 0.3 nM and 2 nM, respectively.
In test [2] (Homo sapiens, MCF7, 72 h), `Cc1nc(N)nc2c1ccn2[C@@H]1O[C@@H]2[C@H](Cc3ccc4cc(Br)c(N)nc4c3)CC[C@]2(O)[C@H]1O` [Example 127, (2R,3R,3aS,6S,6aR)-6-((2-amino-3-bromoquinolin-7-yl)methyl)-2-(2-amino-4-methyl-7-pyrrolo[2,3-d]pyrimidin-7-yl)hexahydro-3aH-cyclopenta[b]furan-3,3a-diol] came in with a concentration for a half-maximal effect (EC50) of 0.8 nM.
`Nc1nc2cc(O[C@H]3CC[C@@]4(O)[C@@H]3O[C@@H](n3ccc5c(N)ncnc53)[C@@H]4O)ccc2cc1C(F)F` [Example 128, (2R,3R,3aS,6S,6aR)-6-((2-amino-3-(difluoromethyl)quinolin-7-yl)oxy)-2-(4-amino-7H-pyrrolo[2,3-d]pyrimidin-7-yl)hexahydro-3aH-cyclopenta[b]furan-3,3a-diol] displayed an EC50 in test [2] (Homo sapiens, MCF7, 72 h) of 15.5 nM.
Still for that read-out and setting: the result for `Cc1ncnc2c1ccn2[C@@H]1O[C@@H]2[C@H](Oc3ccc4cc(Br)c(N)nc4c3)CC[C@]2(O)[C@H]1O` [Example 129, (2R,3R,3aS,6R,6aR)-6-((2-amino-3-bromoquinolin-7-yl)oxy)-2-(4-methyl-7H-pyrrolo[2,3-d]pyrimidin-7-yl)hexahydro-3aH-cyclopenta[b]furan-3,3a-diol] reads 10000 nM.
Same read-out and setting: the result for `Nc1ncc2c(F)cn([C@@H]3O[C@@H]4[C@@H](Oc5ccc6cc(Br)c(N)nc6c5)CC[C@]4(O)[C@H]3O)c2n1` [Example 130, (2R,3R,3aS,6S,6aR)-6-((2-amino-3-bromoquinolin-7-yl)oxy)-2-(2-amino-5-fluoro-7H-pyrrolo[2,3-d]pyrimidin-7-yl)hexahydro-3aH-cyclopenta[b]furan-3,3a-diol] reads 135 nM; that for `Cc1ncnc2c1ccn2[C@@H]1O[C@@H]2[C@@H](Cc3ccc4cc(Cl)c(N)nc4c3)CC[C@]2(O)[C@H]1O` [Example 131, (2R,3R,3aS,6R,6aR)-6-((2-amino-3-chloroquinolin-7-yl)methyl)-2-(4-methyl-7H-pyrrolo[2,3-d]pyrimidin-7-yl)hexahydro-3aH-cyclopenta[b]furan-3,3a-diol], 21.3 nM; that for `Nc1nc2cc(CC3OC[C@@]4(O)C3C[C@@H](n3ccc5c(N)ncnc53)[C@@H]4O)ccc2cc1Br` (some centres unmarked) [Example 132], 236 nM.
On the same count and under the same terms, the result for `Cc1ncnc2c1ccn2[C@@H]1O[C@@H]2[C@H](Cc3ccc4cc(Br)c(N)nc4c3)OC[C@]2(O)[C@H]1O` [Example 133] reads 2.7 nM; that for `Cc1ncnc2c1ccn2[C@@H]1O[C@@H]2[C@@H](Cc3ccc4cc(Br)c(N)nc4c3)OC[C@]2(O)[C@H]1O` [Example 134, (2R,3R,3aS,6R,6aR)-6-((2-amino-3-bromoquinolin-7-yl)methyl)-2-(4-methyl-7H-pyrrolo[2,3-d]pyrimidin-7-yl)tetrahydrofuro[3,4-b]furan-3,3a(4H)-diol], 35.8 nM; that for `Cc1cn([C@@H]2O[C@@H]3[C@H](Cc4ccc5cc(Br)c(N)nc5c4)OC[C@]3(O)[C@H]2O)c2ncnc(N)c12` [Example 135, (2R,3R,3aS,6S,6aR)-6-((2-amino-3-bromoquinolin-7-yl)methyl)-2-(4-amino-5-methyl-7H-pyrrolo[2,3-d]pyrimidin-7-yl)tetrahydrofuro[3,4-b]furan-3,3a(4H)-diol], 0.6 nM.
In test [2] (Homo sapiens, MCF7, 72 h), `Nc1nc2cc(C[C@@H]3OC[C@@]4(O)[C@@H]3O[C@@H](n3ccc5c(N)ncnc53)[C@@H]4O)ccc2cc1Br` [Example 136, (2R,3R,3aS,6S,6aR)-6-((2-amino-3-bromoquinolin-7-yl)methyl)-2-(4-amino-7H-pyrrolo[2,3-d]pyrimidin-7-yl)tetrahydrofuro[3,4-b]furan-3,3a(4H)-diol] gave an EC50 of 0.4 nM.
Still for that read-out and setting: the result for `Nc1nc2cc(C[C@@H]3CC[C@@]4(O)[C@@H]3O[C@@H](n3ccc5c(N)ncnc53)[C@@H]4O)ccc2cc1C(F)F` [Example 137, (2R,3R,3aS,6S,6aR)-6-((2-amino-3-(difluoromethyl)quinolin-7-yl)methyl)-2-(4-amino-7H-pyrrolo[2,3-d]pyrimidin-7-yl)hexahydro-2H-cyclopenta[b]furan-3,3a-diol] reads 0.8 nM.
